# System: adult heart explants (adult EPDCs)
# Assay: Adult epicardial explant culture: EPDC outgrowth and differentiation
# Format: cell-based, mouse
# Procedure: A simple protocol for the outgrowth and differentiation of vasculogenic precursor cells (endothelial and vascular smooth muscle cells) from adult heart using Thymosin β4 to stimulate epicardial cell migration is described below.
# • 1. Coat 6-well plates with gelatin: pipette 2 ml 0.1% gelatin solution, allow to stand for 15 minutes and aspirate. Optionally, place coverslips into wells, prior to gelatin coating. • 2. Cull adult mouse by cervical dislocation. • 3. Using sterile forceps and scissors make a lateral incision in the centre of the abdomen and tear back the fur to expose the rib cage. • 4. Carefully cut upwards through the sternum and along the diaphragm, taking care not to cut into the heart. Pull back the ribs to reveal the heart. • 5. Remove the heart using forceps and dissect away the atria and major vessels, to leave right and left ventricles. • 6. Place tissue in a 60 mm tissue culture dish (non gelatin coated) containing 2 ml DPBS. Cut into quarters and allow blood to rinse from the tissue. Carefully aspirate away DPBS. Using a sterile scalpel, cut the heart into pieces of approximately 1 mm^3. Reproducible EPDC outgrowth strongly depends upon the size of the heart pieces (optimally 1 mm^3). Larger pieces will not adhere to permit sufficient migration while smaller pieces tend to dissociate completely and cardiomyocyte death precedes adherence and EPDC outgrowth. • 7. Divide heart pieces into 4 equal portions (1 adult heart is typically divided between 4 wells for optimal EPDC outgrowth). • 8. Pipette 2 ml of EPDC culture medium, supplemented with 100 ng/ml Tβ4, into each well to be used. • 9. Place 1 portion of heart tissue into the centre of each well and ensure that all pieces are submerged. • 10. Gently transfer the plate to a humidified 5% CO2 37° C. incubator. Maintain cultures with minimum disturbance to allow explants to adhere. No feeding is required for the first 72 hours. Minimal disturbance is absolutely essential for EPDC outgrowth. Explants adhere only tenuously in the first instance and disturbance in the first few days of culture will prevent adhesion or lead to detachment. Plates should be transferred extremely cautiously between incubator and microscope or culture hood. After sufficient EPDCs have emerged, explants attach more firmly but care is still required as detachment may easily occur. • 11. After 72 hours in culture, carefully transfer plate to culture hood, wash explants gently with DPBS and add 2 ml fresh EPDC medium containing 100 ng/ml Tβ4. Leave for a further 24 hours before assessment of cellular phenotype.
# • 1. Culture adult heart explants as described above. • 2. After 72 hours of culture, fix cells with 4% PFA for 10 minutes at room temperature. • 3. Wash cells twice with PBS. • 4. Permeabilise cells with 0.5% Triton X-100 in PBS for 5 minutes at room temperature. • 5. Wash cells twice with PBS. • 6. Block non-specific binding by incubating cells in BLOCK (1% BSA/10% sheep serum in PBS) for 1 hour at room temperature. • 7. Incubate cells with an appropriate dilution of primary antibody (epicardin, 1:100; SMalphaA, 1:700; Flk1, 1:100), or Procollagen type I, 1:100), in BLOCK. • 8. Wash cells 3 times using BLOCK. • 9. Incubate cells with the appropriate secondary antibody (epicardin: Cy3-conjugated anti-rabbit; SMalphaA: FITC-conjugated anti-mouse, 1:30; Procollagen type I: Alexa 488-conjugated anti-goat, 1:200; Flk1: Alexa 594-conjugated anti-rat, 1:200) diluted in BLOCK. • 10. Wash cells twice in PBS. • 11. Optionally, to stain nuclei, incubate with 5 ug/ml Hoechst in PBS for 5 minutes at room temperature. • 12. Wash cells twice in PBS. • 13. Mount coverslips onto microscope slides using 50% glycerol in PBS as mountant and visualize using a fluorescence microscope. […]
substance,measurement,setting,value
Thymosin β4 [Tβ4],percentage incidence of myocardial progenitors (cells positive for Isl-1/Nkx2.5/Gata4),"Gata5-EYFP lineage trace explant cultures, mean +/− SEM, n=12 explants",5.3+/−1.9%
same,EPDCs positive for Tbx18 and Raldh2,"adult epicardial explants, immunofluorescence","significant number of proliferative, migrating EPDCs positive for Tbx18 and Raldh2"
same,differentiation of emerging epicardin-positive cells,"adult explants, immunofluorescence","differentiated with migration into procollagen type I—, SMαA- and Flk1 (VEGF receptor)-positive cells"
same,EPDC outgrowth from adult heart explants,"adult mouse heart explants, 8-12 weeks, vs untreated explants",stimulated extensive outgrowth of cells

# Reference: patent publication US20090081170A1, “Cardiac progenitor cells” (priority 2007, published 2009)
